For 19 molecules, ΔTm results are on record in patent EP4806898A1, “HETEROARYL DERIVATIVE COMPOUND AND USE THEREOF” (Voronoi Inc., priority 2023, dated 2025).

The target in the experiment is T1, recombinant USP1 protein (Homo sapiens, UniProt O94782, DEL125-138/DEL229-408/DEL608-737).
T1 sequence (O94782 with tags, fused parts or gaps DEL125-138/DEL229-408/DEL608-737): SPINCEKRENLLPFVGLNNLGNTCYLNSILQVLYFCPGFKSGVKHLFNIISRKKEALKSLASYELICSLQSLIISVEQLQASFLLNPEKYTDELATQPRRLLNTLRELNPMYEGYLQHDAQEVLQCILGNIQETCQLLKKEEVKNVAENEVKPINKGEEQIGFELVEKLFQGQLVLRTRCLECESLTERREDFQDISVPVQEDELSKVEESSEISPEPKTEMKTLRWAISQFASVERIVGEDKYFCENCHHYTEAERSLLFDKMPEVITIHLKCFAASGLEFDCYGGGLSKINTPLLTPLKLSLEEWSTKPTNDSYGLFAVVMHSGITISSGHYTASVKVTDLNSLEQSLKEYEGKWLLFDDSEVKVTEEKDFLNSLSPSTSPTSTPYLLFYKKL
Kind of experiment: Binding affinity to recombinant USP1 protein by differential scanning fluorimetry. As to conditions: compound 100 µM; 0.03 mg/mL USP1 (Δ1-66, Δ125-138, Δ229-408, Δ608-737); Tm with compound minus Tm with DMSO; read-out: ΔTm (°C). On the procedure: <Experimental Example 1> Confirmation and evaluation of the binding affinity to recombinant USP1 protein
To evaluate the binding affinity of the compounds of the present invention to the USP1 protein, the following experiment was performed using differential scanning fluorimetry.
Recombinant 0.03 mg/mL USP1 (Δ1-66, Δ125-138, Δ229-408, Δ608-737) protein, dye reagent, and buffer solution (50 mM Tris-HCl pH 8.0, 150 mM NaCl, 2% glycerol, 1 mM DTT) were mixed and 19 µL of the mixture was dispensed into a well plate (MicroAmp Fast 96-Well Reaction plate, 0.1 mL). Each compound was injected at a final concentration of 100 µM in an amount of 1 µL, and the plate containing a total of 20 µL was sealed with MicroAmp Optical Adhesive Film. The melting temperature (Tm) of the protein in each well was measured using a real-time PCR (RT-PCR) device. The difference between the Tm of the sample containing the compound and the Tm containing DMSO is referred to as delta Tm (ΔTm), where a larger ΔTm value indicates stronger binding affinity. The degree of temperature at which the protein is modified in the presence of the compound compared to DMSO was calculated according to Equation 1 below: [formula]
(DSF heats the sample and reads unfolding from a dye or from intrinsic fluorescence.)
Broadly, the ΔTm is the shift of the melting midpoint relative to a reference. Turning to `COc1ncnc(C2CC2)c1-c1ncc2cc(C(=O)NCCS(C)(=O)=O)n(Cc3ccc(-c4nc(C(F)(F)F)cn4C(C)C)cc3)c2n1` [Example 8, 2-(4-cyclopropyl-6-methoxypyrimidin-5-yl)-7-(4-(1-isopropyl-4-(trifluoromethyl)-1H-imidazol-2-yl)benzyl)-N-(2-(methylsulfonyl)ethyl)-7H-pyrrolo[2,3-d]pyrimidine-6-carboxamide], the shift in melting temperature (ΔTm) at 100 µM was more than 5 °C.
With `COc1ncnc(C2CC2)c1-c1ncc2cc(C(=O)N3CC4CCC(C3)N4)n(Cc3ccc(-c4nc(C(F)(F)F)cn4C(C)C)cc3)c2n1` [Example 16, (3,8-diazabicyclo[3 .2.1]octan-3-yl)(2-(4-cyclopropyl-6-methoxypyrimidin-5-yl)-7-(4-(1-isopropyl-4-(trifluoromethyl)-1H-imidazol-2-yl)benzyl)-7H-pyrrolo[2,3-d]pyrimidin-6-yl)methanone], the ΔTm at 100 µM is more than 5 °C.
Consider `COc1ncnc(C2CC2)c1-c1ncc2cc(C(=O)N3CCS(=O)(=O)CC3)n(Cc3ccc(-c4nc(C(F)(F)F)cn4C(C)C)cc3)c2n1` [Example 27, (2-(4-cyclopropyl-6-methoxypyrimid in-5-yl)-7-(4-(1-isopropyl-4-(trifluoromethyl)-1H-imidazol-2-yl)benzyl)-7H-pyrrolo[2,3-d]pyrimidin-6-yl) (1,1-dioxidothiomor pholino)methanone], for which the ΔTm at 100 µM was more than 5 °C.
The figure for `CNC(=O)c1cc2cnc(-c3c(OC)ncnc3C3CC3)nc2n1Cc1ccc(-n2ccnn2)cc1` [Example 44, 7-(4-(1H-1,2,3-triazol-1-yl)benzyl)-2-(4-cyclopropyl-6-methoxypyrimidin-5-yl)-N-methyl-7H-pyrrolo[2,3-d]pyrimidine-6-carboxamide] is less than 5 °C.
For `COc1ncnc(C2CC2)c1-c1ncc2cc(C(=O)N3C[C@H]4CC[C@@H](C3)N4C3CC3)n(Cc3ccc(-c4nc(C(F)(F)F)cn4C(C)C)cc3)c2n1` [Example 46, (2-(4-cyclopropyl-6-methoxypyrimid in-5-yl)-7-(4-(1-isopropyl-4-(trifluoromethyl)-1H-imidazol-2-yl)benzyl)-7H-pyrrolo[2,3-d]pyrimidin-6-yl)((1R,5S)-8-cyclopropyl-3,8-diazabicyclo[3 .2.1]octan-3-yl)methanone], the ΔTm at 100 µM was more than 5 °C.
The figure for `COc1ncnc(C2CC2)c1-c1ncc2cc(C(=O)N3CCNCC3)n(Cc3ccc(-c4nc(C(F)(F)F)cn4C(C)C)cc3)c2n1` [Example 54, (2-(4-cyclopropyl-6-methoxypyrimid in-5-yl)-7-(4-(1-isopropyl-4-(trifluoromethyl)-1H-imidazol-2-yl)benzyl)-7H-pyrrolo[2,3-d]pyrimidin-6-yl) (piperazin-1-yl)methanone] is more than 5 °C; for `CNC(=O)c1cc2cnc(-c3c(C4CC4)nc[nH]c3=O)nc2n1Cc1ccc(-c2nc(C(F)(F)F)cn2C(C)C)cc1` [Example 59, 2-(4-cyclopropyl-6-oxo-1,6-dihydropyrimidin-5-yl)-7-(4-(1-isopropyl-4-(trifluoromethyl)-1H-imidazol-2-yl)benzyl)-N-methyl-7H-pyrrolo[2,3-d]pyrimidine-6-carboxamide] it is less than 5 °C; for `CCn1cnc(C2CC2)c(-c2ncc3cc(C(=O)NC)n(Cc4ccc(-c5nc(C(F)(F)F)cn5C(C)C)cc4)c3n2)c1=O` [Example 62, 2-(4-cyclopropyl-1-ethyl-6-oxo-1,6-dihydropyrimidin-5-yl)-7-(4-(1-isopropyl-4-(trifluoromethyl)-1H-imidazol-2-yl)benzyl)-N-methyl-7H-pyrrolo[2,3-d]pyrimidine-6-carboxamide] it is less than 5 °C.
Turning to `COc1ncnc(C2CC2)c1-c1ncc2cc(C(=O)N3CC(F)(C#N)C3)n(Cc3ccc(-c4nc(C(F)(F)F)cn4C(C)C)cc3)c2n1` [Example 72, 1-(2-(4-cyclopropyl-6-methoxypyrimidin-5-yl)-7-(4-(1-isopropyl-4-(trifluoromethyl)-1H-imidazol-2-yl)benzyl)-7H-pyrrolo[2,3-d]pyrimidine-6-carbonyl)-3-fluoroazetidine-3-carbonitrile], the ΔTm at 100 µM was more than 5 °C.
On to `COc1ncnc(C2CC2)c1-c1ncc2cc(C(=O)NC3CCN(S(C)(=O)=O)CC3)n(Cc3ccc(-c4nc(C(F)(F)F)cn4C(C)C)cc3)c2n1` [Example 74, 2-(4-cyclopropyl-6-methoxypyrimidin-5-yl)-7-(4-(1-isopropyl-4-(trifluoromethyl)-1H-imidazol-2-yl)benzyl)-N-(1-(methylsulfonyl)piperidin-4-yl)-7H-pyrrolo[2,3-d]pyrimidine-6-carboxamide], for which the ΔTm at 100 µM was more than 5 °C.
Regarding `COc1ncnc(C2CC2)c1-c1ncc2cc(C(=O)N(C)C3CC3)n(Cc3ccc(-c4nc(C(F)(F)F)cn4C(C)C)cc3)c2n1` [Example 76, N-cyclopropyl-2-(4-cyclopropyl-6-methoxypyrimidin-5-yl)-7-(4-(1-isopropyl-4-(trifluoromethyl)-1H-imidazol-2-yl)benzyl)-N-methyl-7H-pyrrolo[2,3-d]pyrimidine-6-carboxamide], the ΔTm at 100 µM is more than 5 °C.
The figure for `COc1ncnc(C2CC2)c1-c1ncc2cc(C(=O)Nc3ccc(CN(C)C)cc3)n(Cc3ccc(-c4nc(C(F)(F)F)cn4C(C)C)cc3)c2n1` [Example 77, 2-(4-cyclopropyl-6-methoxypyrimidin-5-yl)-N-(4-((dimethylamino)methyl)phenyl)-7-(4-(1-isopropyl-4-(trifluoromethyl)-1H-imidazol-2-yl)benzyl)-7H-pyrrolo[2,3-d]pyrimidine-6-carboxamide] is more than 5 °C; for `COc1ncnc(C2CC2)c1-c1ncc2cc(C(=O)N[C@H](C)CO)n(Cc3ccc(-c4nc(C(F)(F)F)cn4C(C)C)cc3)c2n1` [Example 81, (R) -2-(4-cyclopropyl-6-methoxypyrimidin-5-yl)-N-(1-hydroxypropan-2-yl)-7-(4-(1-isopropyl-4-(trifluoromethyl)-1H-imidazol-2-yl)benzyl)-7H-pyrrolo[2,3-d]pyrimidine-6-carboxamide] it is more than 5 °C; for `COc1ncnc(C2CC2)c1-c1ncc2cc(C(=O)N[C@@H](C)CCO)n(Cc3ccc(-c4nc(C(F)(F)F)cn4C(C)C)cc3)c2n1` [Example 91, (S)-2-(4-cyclopropyl-6-methoxypyrimidin-5-yl)-N-(4-hydroxybutan-2-yl)-7-(4-(1-isopropyl-4-(trifluoromethyl)-1H-imidazol-2-yl)benzyl)-7H-pyrrolo[2,3-d]pyrimidine-6-carboxamide] it is more than 5 °C.
Turning to `COc1ncnc(C2CC2)c1-c1ncc2cc(C(=O)NC3CCS(=O)(=O)CC3)n(Cc3ccc(-c4nc(C(F)(F)F)cn4C(C)C)cc3)c2n1` [Example 93, 2-(4-cyclopropyl-6-methoxypyrimidin-5-yl)-N-(1,1-dioxidotetrahydro-2H-thiopyran-4-yl)-7-(4-(1-isopropyl-4-(trifluoromethyl)-1H-imidazol-2-yl)benzyl)-7H-pyrrolo[2,3-d]pyrimidine-6-carboxamide], the ΔTm at 100 µM was more than 5 °C.
In the case of `COc1ncnc(C2CC2)c1-c1ncc2cc(C(=O)N3CC(C(F)F)C3)n(Cc3ccc(-c4nc(C(F)(F)F)cn4C(C)C)cc3)c2n1` [Example 96, (2-(4-cyclopropyl-6-methoxypyrimid in-5-yl)-7-(4-(1-isopropyl-4-(trifluoromethyl)-1H-imidazol-2-yl)benzyl)-7H-pyrrolo[2,3-d]pyrimidin-6-yl) (3-(difluoromethyl)azetidin-1-yl)methanone], the ΔTm at 100 µM was more than 5 °C.
The result for `COc1ncnc(C2CC2)c1-c1ncc2cc(C(=O)NCCN3CCNCC3)n(Cc3ccc(-c4nc(C(F)(F)F)cn4C(C)C)cc3)c2n1` [Example 98, 2-(4-cyclopropyl-6-methoxypyrimidin-5-yl)-7-(4-(1-isopropyl-4-(trifluoromethyl)-1H-imidazol-2-yl)benzyl) -N-(2-(piperazin-1-yl)ethyl)-7H-pyrrolo[2,3-d]pyrimidine-6-carboxamide] reads more than 5 °C.
The result for `COc1ncnc(C2CC2)c1-c1ncc2cc(C(=O)N(C)C3CNC3)n(Cc3ccc(-c4nc(C(F)(F)F)cn4C(C)C)cc3)c2n1` [Example 103, N-(azetidin-3-yl)-2-(4-cyclopropyl-6-methoxypyrimidin-5-yl)-7-(4-(1-isopropyl-4-(trifluoromethyl) -1H-imidazol-2-yl)benzyl)-N-methyl-7H-pyrrolo[2,3-d]pyrimidine-6-carboxamide] reads more than 5 °C.
With `COc1ncnc(C2CC2)c1-c1ncc2cc(C(=O)N3CCCC3(C)C)n(Cc3ccc(-c4nc(C(F)(F)F)cn4C(C)C)cc3)c2n1` [Example 107, (2-(4-cyclopropyl-6-methoxypyrimid in-5-yl)-7-(4-(1-isopropyl-4-(trifluoromethyl)-1H-imidazol-2-yl)benzyl)-7H-pyrrolo[2,3-d]pyrimidin-6-yl)(2,2-dimethylpyrrolidin-1-yl)methanone], the ΔTm at 100 µM is more than 5 °C.
